Experimental data: US6458770B1, “Parenteral formulations comprising carbamazepine or its derivatives” (Novartis AG, priority 1997, dated 2002)

Assay: Solubility of the active agent in water
Assay type: physicochemical
Conditions: 25° C., pH of 5.8 to 6.0
Experimental: A wide range of container sizes may be employed. Container size may be conveniently categorised as Low-Volume, i.e. 100 ml or less and High-Volume, i.e. above 100 ml and typically 250 ml. […] parenteral formulations could of course be employed but this may require the use of an organic co-solvent or other solubilising aid which is less desirable than a totally water-based formulation.

solubility in water: 3200 to 4200 µg/mL
Compound: NC(=O)N1c2ccccc2CC(O)c2ccccc21 (stereo not shown) [COMPOUND A, 10-hydroxy-10,11-tetrahydrocarbamazepine]
